Assay results reported in patent US5681846A (priority 1995, dated 1997).
“Also recorded” adds a separate entry of the source. Like-named read-outs stand apart in the source and are kept apart here.

Columns and labels:
lymphoma, breast cancer = details: cited from earlier work
[1] = Chemical stability of paclitaxel in infusion solutions by HPLC; assay type: physicochemical; details: 0.1 and 1 mg/mL; D5W and 0.9% NaCl
Protocol: The liquid chromatograph consisted of a multisolvent delivery pump (Waters Chromatography, Milford, Mass.), a programmable multiple-wavelength ultraviolet light detector (Waters), a WISP autosampler,(Waters) and a HPLC analytical column (Vydac, Hesperia, Calif.) (250×4.6 mm, 5 μm particle size). The system was controlled and integrated by a personal computer (NEC, Boxborough, Mass.). The mobile phase consisted of 53% acetonitrile in water. The flow rate was 1.5 ml/min and detection was performed at 254 nm. […] Sample aliquots were filtered through 5 μm filter needle.
Precision expressed as percent relative standard deviation was 0.76%. Calibration curves were constructed from a linear plot of peak area versus concentration (0,025 to 0.15 mg/mL). […] The intra-day and inter-day coefficients of variation were 1.4% and 2.0%, respectively.
Aliquots were removed from each bag initially and after 1, 3, 5, and 7 days and stored in 2-ml sterile vials at -70° C. […] Duplicate HPLC determinations were performed on the aliquots from each test solution.

[2] = assay type: physicochemical; details: for Precipitation Time (earliest among triplicate samples): Cremophor EL 8.3%
Text: Physical stability testing of extended stability formulations has been evaluated for the effects of changing alcohol concentration on precipitation times in infusion solutions.
In the 15 to 20% range, the time to precipitation varied from about 9 to 14 days in most samples. […] Within the 15 to 20% group, however, the time to precipitation was variable and not linearly related to alcohol content.
^a Cremophor ® EL concentration held constant at 8.3%, the same a
^b Earliest precipitation among triplicate samples.

[3] = cited from earlier work
cell replication = details: in vitro; cited from earlier work
tubulin = details: cited from earlier work
[4] = Visual examination of paclitaxel test solutions (physical compatibility); assay type: physicochemical; design: key to Visual observation: --: Light blue hazy solution free of particulate matter; details: for Visual observation, all samples: days 1 and 3
Protocol: (§1) Aliquots were removed from each bag initially and after 1, 3, 5, and 7 days and stored in 2-ml sterile vials at -70° C. Grossly precipitated solutions were assayed after 31 days of storage. Duplicate HPLC determinations were performed on the aliquots from each test solution.
(§2) Physical compatibility was evaluated by visual examination and turbidimetric quantification. […] The tubes and caps were triple-washed in high-performance liquid chromatography-grade water and rinsed exteriorly with ethanol. To minimize the effects of scratches and imperfections in the glass, a thin layer of silicone oil was applied to the exterior of the culture tubes.
Visual examination of the samples was performed with the unaided eye in normal laboratory fluorescent light. Samples with no obvious visual incompatibility were further examined using a Tyndall beam (high-intensitymonodirectional light source)(Dolan-Jenner, Woburn, Mass.). The test tubes were illuminated from below and viewed at a 90° angle against a dark background to enhance the visibility of small particles.
(§3) Visual inspections and turbidimetric assessments were performed initially and after 1, 3, 5, 7, 14, and 31 days of storage at each temperature protected from light.

[5] = Turbidimetric assessment of paclitaxel test solutions; assay type: physicochemical; details: during the study
Protocol: as §1, §2
Turbidimetric assessments of the normally hazy paclitaxel solutions were made using a color-correcting turbidimeter (Hatch, Loveland, Colo.). The turbidimeter was calibrated in the manner described previously (Trissel et al., 1992). Triplicate determinations were made for each sample; the turbidimeter was allowed to return to zero between determinations. Incompatibility has been defined as an increase in turbidity of 0.5 nephelometric turbidity unit (NTU) or more (Trissel et al., 1993).
as §3

For CC(=O)O[C@H]1C(=O)[C@@]2(C)[C@H]([C@H](OC(=O)c3ccccc3)[C@]3(O)C[C@H](OC(=O)[C@H](O)[C@@H](NC(=O)c4ccccc4)c4ccccc4)C(C)=C1C3(C)C)[C@]1(OC(C)=O)CO[C@@H]1C[C@@H]2O [paclitaxel], the “activity in clinical trials” value (lymphoma, breast cancer) is listed as “has shown activity against lymphoma, breast cancer, and possibly other tumors”, the “decomposition products on HPLC chromatograms” value [1] is listed as “No decomposition products appeared on the HPLC chromatograms” and the “Precipitation Time (earliest among triplicate samples)” value (“Precipitation Time” below) ([2]; 1 mg/mL in D5W, alcohol 15%) is listed as 14 days. The “Precipitation Time” value ([2]; 1 mg/mL in D5W, alcohol 16%) was 12 days, the “Precipitation Time” value ([2]; 1 mg/mL in D5W, alcohol 17%) was 10 days and the “Precipitation Time” value ([2]; 1 mg/mL in D5W, alcohol 18%) was 12 days. For the same compound, the “Precipitation Time” value ([2]; 1 mg/mL in D5W, alcohol 19%) was 9 days, the “Precipitation Time” value ([2]; 1 mg/mL in D5W, alcohol 20%) was 9 days and the gross precipitation ([2]; 1 mg/mL in D5W, alcohol 25%) was 21 days. The “Precipitation Time” value ([2]; 1 mg/mL in D5W, alcohol 25%) was 14 days, the earliest microprecipitation ([2]; 1 mg/mL in D5W, alcohol 25%, one sample) was 14 days and the “Precipitation Time” value ([2]; 1 mg/mL in D5W, alcohol 30%) was over 60 days. The “storage time without precipitation or microcrystals” value ([2]; 1 mg/mL in D5W, alcohol 30 and 50%, any sample) was over 60 days, the “Precipitation Time” value ([2]; 1 mg/mL in D5W, alcohol 50%) was over 60 days and the “precipitation among triplicate samples” value ([2]; alcohol 19% and 20% (footnote c)) was “One sample precipitated at 9 days, 2 samples at 14 days or more”. For the same compound, the “precipitation among triplicate samples” value ([2]; alcohol 25% (footnote d)) was “One sample did not precipitated after 60 days”, the “precipitation among triplicate samples” value ([2]; alcohol 30% and 50% (footnote e)) was “All three samples were still in solution after 60 days” and the “appearance after dilution in infusion fluids” value ([3]; clinical formulation diluted in intravenous infusion fluids) was “slight haze and, occasionally, a few minute particles”. The “physical stability in aqueous solutions” value ([3]; clinical formulation) was “physically unstable, and in aqueous solutions exhibits the formation of paclitaxel precipitate”, the “inhibition of cell replication” value (cell replication) was “potent inhibitor of cell replication in vitro” and the tubulin polymerization (tubulin) was “markedly enhances all aspects of tubulin polymerization; initiation and elongation are more rapid”. For the same compound, the “precipitation observed visually / by Tyndall beam” value ([4]; 0.1 and 1 mg/mL, D5W and 0.9% NaCl) was “all samples were initially free of particulate matter but had paclitaxel's normal haze; also recorded: Large amounts of white flocculent precipitate appeared after 31 days of storage in many of the samples and after 14 days in a few samples; also recorded: Two samples had small amounts of crystalline precipitate within five days of storage; also recorded: Most samples had crystalline precipitation within a week”, the “chemical stability and physical compatibility time” value ([4]; 0.1 and 1 mg/mL, D5W and 0.9% NaCl, 4, 22, 32 °C) was “All samples remained compatible in both infusion solutions for at least three days; also recorded: chemically stable and physically compatible for three days” and the Visual observation ([4]; 0.9% NaCl, 0.1 mg/mL, 4 °C, day 0) was “--”. For the same compound, the Visual observation ([4]; 0.9% NaCl, 0.1 mg/mL, 4 °C, day 7) was “Tiny crystals”, the Visual observation ([4]; 0.9% NaCl, 0.1 mg/mL, 22 °C, day 0) was “--” and the Visual observation ([4]; 0.9% NaCl, 0.1 mg/mL, 22 °C, day 5) was “--”. The Visual observation ([4]; 0.9% NaCl, 0.1 mg/mL, 22 °C, day 7) was “Tiny crystals”, the Visual observation ([4]; 0.9% NaCl, 0.1 mg/mL, 32 °C, day 0) was “--” and the Visual observation ([4]; 0.9% NaCl, 0.1 mg/mL, 32 °C, day 5) was “--”. For the same compound, the Visual observation ([4]; 0.9% NaCl, 0.1 mg/mL, 32 °C, day 7) was “Tiny crystals”, the Visual observation ([4]; 0.9% NaCl, 1 mg/mL, 4 °C, day 0) was “--” and the Visual observation ([4]; 0.9% NaCl, 1 mg/mL, 4 °C, day 5) was “--”. For the same compound, the Visual observation ([4]; 0.9% NaCl, 1 mg/mL, 4 °C, day 7) was “Tiny crystals”, the Visual observation ([4]; 0.9% NaCl, 1 mg/mL, 22 °C, day 0) was “--” and the Visual observation ([4]; 0.9% NaCl, 1 mg/mL, 22 °C, day 5) was “--”. For the same compound, the Visual observation ([4]; 0.9% NaCl, 1 mg/mL, 22 °C, day 7) was “Tiny crystals”, the Visual observation ([4]; 0.9% NaCl, 1 mg/mL, 32 °C, day 0) was “--” and the Visual observation ([4]; 0.9% NaCl, 1 mg/mL, 32 °C, day 5) was “--”. The Visual observation ([4]; 0.9% NaCl, 1 mg/mL, 32 °C, day 7) was “Tiny crystals”, the Visual observation ([4]; 0.9% NaCl, 1 mg/mL, 32 °C, day 14) was “Tiny crystals” and the “Visual observation, all samples” value ([4]; 0.9% NaCl) was “particulatefree”. The Visual observation ([4]; 5% dextrose, 0.1 mg/mL, 4 °C, day 0) was “--”, the Visual observation ([4]; 5% dextrose, 0.1 mg/mL, 4 °C, day 5) was “--” and the Visual observation ([4]; 5% dextrose, 0.1 mg/mL, 4 °C, day 7) was “--”. The Visual observation ([4]; 5% dextrose, 0.1 mg/mL, 4 °C, day 14) was “--”, the Visual observation ([4]; 5% dextrose, 0.1 mg/mL, 22 °C, day 0) was “--” and the Visual observation ([4]; 5% dextrose, 0.1 mg/mL, 22 °C, day 5) was “--”. The Visual observation ([4]; 5% dextrose, 0.1 mg/mL, 32 °C, day 0) was “--”, the Visual observation ([4]; 5% dextrose, 0.1 mg/mL, 32 °C, day 5) was “--” and the Visual observation ([4]; 5% dextrose, 1 mg/mL, 4 °C, day 0) was “--”. The Visual observation ([4]; 5% dextrose, 1 mg/mL, 22 °C, day 0) was “--”, the Visual observation ([4]; 5% dextrose, 1 mg/mL, 22 °C, day 5) was “--” and the Visual observation ([4]; 5% dextrose, 1 mg/mL, 32 °C, day 0) was “--”. The Visual observation ([4]; 5% dextrose, 1 mg/mL, 32 °C, day 5) was “--”, the “Visual observation, all samples” value ([4]; 5% dextrose) was “particulatefree” and the change in turbidity [5] was “did not result in any change during the study except for samples with noticeable precipitation”.
